Experiments:
PCSK9 protein = molecular target: T1, PCSK9 protein (Homo sapiens, UniProt Q8NBP7); experiment: Binding ability to PCSK9 protein (HTRF); conditions: PCSK9-His, Alexa Fluor 647 probe compound
T1 construct: purchased Sino biology (Sino Biological) 29698-H08H
Protocol: 1. Experimental objective: To detect the action of compounds to bind PCSK9 protein by an HTRF method.
3. Experimental data processing method: Four-parameter log(inhibitor) vs. response—Variable slope (four parameters) in XLit was used to perform non-linear fitting of the compound concentration and the corresponding inhibition rate, and IC50 was calculated.

[1] = In vitro metabolic stability in human liver microsomes; type: in vitro ADME; conditions: pH 7.4
Protocol: 1. Experimental objective: The purpose of this experiment was to evaluate the metabolic stability of the compounds in phase I and partially phase II in mouse, rat and human liver microsomes, respectively.
2.1 Drug preparation: 10 mM stock solution of the compound of the present disclosure was prepared in DMSO (or other suitable solution) and stored in a −20° C. refrigerator for later use. The compound of the present disclosure was made in house.
2.2 Experimental steps • 1) Preparation of buffer: 4.01 mL of 1 M K2HPO4·3H2O (AR grade) and 0.99 mL of 1 M KH2PO4 (AR grade) were dissolved in ultrapure water and the volume was adjusted to 50 mL to prepare a phosphate buffer with a final concentration of 100 mM. • 2) Preparation of compound working solution: Preparation of compound working solution: 2 μL of the compound stock solution was added to 998 μL of phosphate buffer to a final concentration of 20 μM. According to the properties of the compound, the preparation proportions could be adjusted appropriately to adjust the final concentration. • 3) Preparation of liver microsome working solution: 156.3 μL of 20 mg/mL microsomes were diluted to 5 mL with 100 mM phosphate buffer, and the mixture was mixed well to reach a final concentration of 0.625 mg/mL. • 4) Preparation of NADPH and UDPGA: 33.3 mg of NADPH and 25.8 mg of UDPGA were weighed and added to 2 mL of 100 mM phosphate buffer to reach a final concentration of 20 mM. • 5) Preparation of pore-forming agent (Alamethicin): 1 mg of Alamethicin was weighed and added to 200 μL of methanol to prepare a 5 mg/mL solution. 10 μL of the solution was taken and added to 990 μL phosphate buffer (pH 7.4) to reach a final concentration of 50 μg/mL. • 6) Preparation of reaction stop solution: The internal standard was diluted with acetonitrile (or other suitable solution) to use as a stop solution and stored in a 2° C.-8° C. refrigerator. • 7) Incubation process: 400 μL of the prepared liver microsomes, 25 μL of the compound working solution (20 μM) and 25 μL of Alamethicin (50 μg/mL) were successively added to the 96-well plate, and the mixture was pre-incubated at 37° C. for 10 min. Then, 50 μL of prepared NADPH/UDPGA was added to start the reaction, and the mixture was incubated at 37° C. The total volume of the reaction system was 500 μL. The final contents of each component were as follows:
50 μL of samples were taken at 0, 5, 15, 30, 60 and 120 min, respectively, 200 μL of a cold stop solution containing the internal standard was added to stop the sample reaction, the mixture was centrifuged at 3500 rpm for 10 min, and the supernatant was taken and analyzed by LC-MS/MS.
Instruments: Shimadzu LC-20 AD; Chromatographic column: Phenomenex Gamin® C18 (50*4.6 mm, 5 μm particle size); mobile phase: A: 0.1% aqueous formic acid, B: acetonitrile; Elution gradient: 0.2-1.6 min, […], 3.0-3.1 min, 95% A to 5% A; Flow rate: 1.0 ml/min; Run time: 4.0 min; Injection volume: 5 μL.
Instruments: AP14000 liquid chromatography mass spectrometer, AB Sciex; Ion source: electrospray ionization source (ESI); Drying gas: N2, temperature 500° C.; Electrospray voltage: 5000 V; Detection mode: positive ion detection; Scanning mode: Reaction Monitoring (MRM) mode; Scanning time: 0.8401 s.
3. Data processing: The raw data were calculated according to the following formula: […]
The in vitro liver microsome intrinsic clearance rate (CLint) and liver intrinsic clearance rate (CLint,liver) were calculated by Ke.

[2] = system: hyperlipidemia animal model of B6-hPCSK9 transgenic mice; experiment: In vivo pharmacodynamic study in hyperlipidemia model of B6-hPCSK9 transgenic mice (LDL-C, TC, plasma PCSK9); set-up: species or system B6-hPCSK9 transgenic C57 mice; conditions: PO administration, 10 mpk, Day 14, B6-hPCSK9 transgenic mice on high-fat feed, normalized to vehicle group
Protocol: 1. Experimental objective: The compounds of the present disclosure were evaluated for in vivo pharmacodynamics in a hyperlipidemia animal model of B6-hPCSK9 transgenic mice.
2.1 Animals: B6-hPCSK9 transgenic C57 mice, 6-8 weeks old, male, purchased from Jiangsu GemPharmatech Co., Ltd.
2.2 Animal model: After delivery to a barrier system, the animals were given one week for acclimatization and began to feed on the high-fat feed. The body weight and feed weight were weighed once a week, and the body weight and food intake thereof were recorded.
2.3 Grouping and administration • a. The animals were grouped by a random grouping method. • c. According to the grouping results, administration with the test drug was started (mode of administration: oral administration; administration volume: 10 mL/kg; frequency of administration: once/day or single administration; administration cycle: 21 days; vehicle: 10% Solutol HS 15/90% Saline). Test drug: Compounds of the present disclosure, made in house. • d. After the test drug was administered, the body weight and feed weight were weighed twice a week and blood was taken once a week. • e. The data was processed with software such as Excel. […] PCSK9 in plasma was detected by ELISA.

[3] = system: LDLR level in HepG2 cells; experiment: Effect on the LDLR level in HepG2 cells (ELISA); type: cell-based, Human; conditions: 48 hours, LDLR in lysate by ELISA
Protocol: 1. Experimental objective: To detect the effect of the compounds on the LDLR protein level.
2. […] A self-adhesive seal was applied, the plate was placed on a plate shaker at room temperature, gently shaken, uniformly mixed, and incubated for 2 hours. • 11) The plate was placed on the plate washer, the washing liquid was set to 350 μL per well, and the plate was washed 4 times repeatedly. • 12) 200 μL of Human LDLR conjugate was added, a self-adhesive seal was applied, and the plate was placed on the plate shaker, well mixed uniformly, and incubated for 2 hours. • 13) The plate was placed on the plate washer, the washing liquid was set to 350 μL per well, and the plate was washed 4 times repeatedly. • 14) 200 μL/well of Substrate solution was added, and the plate was placed in the dark, applied with a self-adhesive seal, placed on the plate shaker, well mixed uniformly, and incubated for 20 minutes. • 15) 50 μL/well of Stop solution was added and mixed uniformly over 20 min. • 16) The optical density (OD) value in each well was measured in sequence at a wavelength of 450 nm by the microplate reader.
3. Experimental data processing method: After the OD values were read by the microplate reader, the OD value of the 0-concentration standard in the standard group was subtracted from the OD values of the standards, control group, and samples to obtain the actual OD values for these wells. […]

LDL-C = conditions: combined with a statin; cited from earlier work
[4] = system: PCSK9 secreted by HepG2 cells; experiment: Effect on the concentration of PCSK9 secreted by HepG2 cells (ELISA); type: cell-based; conditions: Homo sapiens, 48 hours, PCSK9 in culture medium by ELISA
Method in brief: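 HepG2 cells treated with compound for 48 h at 37° C., 5% CO2. Secreted PCSK9 in medium quantified by sandwich ELISA (HRP detection, OD 450 nm) against a 0–10 ng/mL standard curve. Inhibition relative to control; IC50 fitted from concentration–inhibition data.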

T1 sequence (Q8NBP7 153-692): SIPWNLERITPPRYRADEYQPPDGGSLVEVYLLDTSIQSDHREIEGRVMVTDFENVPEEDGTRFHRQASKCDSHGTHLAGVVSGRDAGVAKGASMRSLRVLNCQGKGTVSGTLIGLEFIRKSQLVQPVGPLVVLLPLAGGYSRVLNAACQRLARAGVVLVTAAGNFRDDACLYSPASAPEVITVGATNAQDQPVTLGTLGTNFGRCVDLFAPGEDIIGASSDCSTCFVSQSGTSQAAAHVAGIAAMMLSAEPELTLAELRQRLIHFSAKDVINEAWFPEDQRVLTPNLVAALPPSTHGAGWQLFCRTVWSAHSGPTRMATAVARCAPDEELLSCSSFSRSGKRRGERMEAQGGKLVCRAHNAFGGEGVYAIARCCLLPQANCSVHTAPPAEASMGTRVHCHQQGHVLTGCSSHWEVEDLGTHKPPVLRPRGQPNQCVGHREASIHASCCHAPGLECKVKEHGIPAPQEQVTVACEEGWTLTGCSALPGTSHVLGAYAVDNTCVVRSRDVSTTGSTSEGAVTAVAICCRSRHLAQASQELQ

Compound	half-life at 1 µM [1] [h]	microsomal CLint at 1 µM [1] [µL/min/mg]	LDL-C change vs vehicle (%), Day 14 [2] [%]	LDLR expression level [3] [%]	also measured
O=c1ccccn1-c1cnc(N[C@H]2CC[C@H](Nc3nc4cc(F)ccn4n3)C2)c(F)c1 [Example 186, 5′-fluoro-6′-(((1S,3S)-3-((7-fluoro-[1,2,4]triazolo[1,5-a]pyridin-2-yl)amino)cyclopentyl)amino)-2H-[1,3′-bipyridine]-2-one]	35.4	0.7	−51.19	–	IC50 (PCSK9 protein): 0.0085 µM
O=c1nc(O)ccn1-c1cnc(N[C@H]2CC[C@H](Nc3nc4cc(F)ccn4n3)C2)c(F)c1 [Example 188]	12.6	1.8	−47.11	–	–
O=C1c2ncncc2CN1c1ccc(N[C@H]2CC[C@H](Nc3nc4cc(F)ccn4n3)C2)nc1 [Example 21, 6-(6-(((1S,3S)-3-((7-fluoro-[1,2,4]triazolo[1,5-a]pyridin-2-yl)amino)cyclopentyl)amino)pyridin-3-yl)-5,6-dihydro-7H-pyrrolo[3,4-d]pyrimidin-7-one]	–	–	–	135	–
O=C1[C@H](CC[C@H](O)c2ccc(F)cc2)[C@@H](c2ccc(O)cc2)N1c1ccc(F)cc1 [Ezetimibe]	–	–	–	–	reduce LDL-C (LDL-C): 15-20%
O=C1c2c(cccc2C(F)(F)F)CN1c1ccc(N[C@H]2CC[C@H](Nc3nc4cc(F)ccn4n3)C2)nc1 [Example 25]	–	–	–	132	IC50 [4]: 17.6 µM
